Test results: patent US11040963B2 (priority 2017, dated 2021)

Assays:
[1] = molecular target: HA H1 A/California/07/09 (Influenza A virus (A/California/07/2009(H1N1)), UniProt C3W5X2); assay: biochemical; settings: Competition binding (AlphaLISA), pIC50 H1 A/California/07/09
[2] = molecular target: HA H1 A/New Caledonia/20/99 (Influenza A virus (A/New Caledonia/20/1999(H1N1)), UniProt Q6WG00); assay: biochemical; settings: Competition binding (AlphaLISA), pIC50 H1 A/New Caledonia/20/99
[3] = test system: H1N1 A/California/07/09; assay: microbe, parasite or virus in culture; assay type: cell-based, influenza A virus; settings: for EC50: Influenza A virus, H1N1, MDCK, 96 h, read-out: Virus neutralization assay (VNA), pEC50 H1N1 A/California/07/09 (converted)
[4] = test system: H1N1 A/New Caledonia/20/99; assay: microbe, parasite or virus in culture; assay type: cell-based, influenza A virus; settings: for EC50: Influenza A virus, H1N1, MDCK, 96 h, read-out: Virus neutralization assay (VNA), pEC50 H1N1 A/New Caledonia/20/99 (converted)
[5] = test system: H1N1 A/PR/8/34-MA; assay: microbe, parasite or virus in culture; assay type: cell-based, influenza A virus; settings: for EC50: Influenza A virus, MDCK, 96 h, read-out: Virus neutralization assay (VNA), pEC50 H1N1 A/PR/8/34-MA (converted)
[6] = test system: H5N1 A/Vietnam/1203/04; assay: microbe, parasite or virus in culture; assay type: cell-based, influenza A virus; settings: 96 h, average of repeats; for Virus neutralization assay (VNA), pEC50 H5N1 A/Vietnam/1203/04: MDCK cells, CPE by ATPlite; for EC50: Influenza A virus, H5N1, MDCK, read-out: Virus neutralization assay (VNA), pEC50 H5N1 A/Vietnam/1203/04, MDCK cells, 96 h, CPE by ATPlite (converted)
[7] = test system: MDCK cells; settings: dog
[8] = molecular target: HA H5 A/Vietnam/1203/04 (Influenza A virus (A/Vietnam/1203/2004(H5N1)), UniProt Q5EP31); assay: biochemical; settings: Competition binding (AlphaLISA), pIC50 H5 A/Vietnam/1203/04
[9] = in vitro; settings: dog, Cytotoxicity (pCC50) MDCK

| Compound | IC50 [1] | IC50 [2] | Virus neutralization assay (VNA), pEC50 H1N1 A/California/07/09 [3] | Virus neutralization assay (VNA), pEC50 H1N1 A/New Caledonia/20/99 [4] | Virus neutralization assay (VNA), pEC50 H1N1 A/PR/8/34-MA [5] | Virus neutralization assay (VNA), pEC50 H5N1 A/Vietnam/1203/04 [6] | Cytotoxicity (pCC50) MDCK [7] | IC50 [8] | EC50 [3] | EC50 [4] | EC50 [6] | EC50 [5] | CC50 [9] |
| --- | --- | --- | --- | --- | --- | --- | --- | --- | --- | --- | --- | --- | --- |
| COC(=O)[C@@H](c1ccccc1)N1CCN(C(=O)c2cccc(-c3nc4ccc(OC)cc4s3)c2)CC1 [Example 22] | 15.8 nM | 12.6 nM | 6.8 | 6.9 | 6.9 | 5.8 | <4.3 |  |  |  |  |  |  |
| Cc1nnc([C@@H](c2ccccc2)N2CCN(C(=O)c3cccc(-c4nc5cc(C(F)(F)F)ccc5o4)c3)CC2)o1 [Example 27] | 31.6 nM | 50.1 nM |  |  |  |  | <4.3 | 1260 nM | 316 nM | 316 nM | 39800 nM |  |  |
| COC(=O)[C@@H](c1ccccc1)C1CCN(C(=O)c2cccc(-c3nc4ccc(OC)cc4s3)c2)CC1 [Example 65] | 100 nM | 50.1 nM |  |  |  |  |  | 631 nM | 1000 nM | 501 nM | 25100 nM | 631 nM | 39800 nM |
| Cc1nnc([C@@H](c2ccccc2)N2CCN(C(=O)c3cccc(-c4nc5cc(C(F)(F)F)ccc5o4)c3)CC2)o1 [Example 69] | 63.1 nM | 79.4 nM | 6.4 | 6.2 |  | 4.5 | 5.0 | 2510 nM |  |  |  |  |  |
| COC(=O)C(c1ccccc1)N1CCN(C(=O)c2cccc(-c3ccc(OC)cc3)c2)CC1 (stereo not drawn) [Example 83] | 398 nM | 200 nM | 5.7 | 6.2 |  | 4.8 |  | 2510 nM |  |  |  | 1000 nM | 39800 nM |
| O=C(c1cccc(-c2cc3ccccc3o2)c1)N1CCN(Cc2ccccc2)CC1 [Example 85] | 631 nM | 316 nM |  |  |  |  |  | 3160 nM | 2510 nM | 631 nM | 12600 nM | 501 nM | 10000 nM |
| COC(=O)C(c1ccccc1)C1CCN(C(=O)c2cccc(-c3nc4ccc(OC)cc4s3)c2)CC1 (stereo not drawn) [Example 105] | 126 nM | 100 nM |  |  |  |  |  | 2000 nM | 3160 nM | 1000 nM | 12600 nM | 2000 nM | > 50100 nM |
| COc1ccc2nc(-c3cccc(C(=O)N4CCN(C(C(C)=O)c5ccccc5)CC4)c3)sc2c1 (stereo not drawn) [Example 106] | 398 nM | 200 nM |  |  |  |  | 4.4 | 2000 nM | 3160 nM | 1000 nM | > 50100 nM |  |  |
| CCOC(=O)[C@@H](c1ccccc1)N1CCN(C(=O)c2cccc(-c3ccc(OC)cc3)c2)CC1 [Example 114] | 100 nM | 126 nM |  |  |  |  |  | 398 nM | 2000 nM | 1260 nM | 31600 nM | 2510 nM | 3980 nM |
| CCOC(=O)C(c1ccccc1)N1CCN(C(=O)c2cccc(-c3ccc(OC)cc3)c2)CC1 (stereo not drawn) [Example 120] | 251 nM | 251 nM |  |  |  |  |  | 2510 nM | 1260 nM | 1580 nM | > 50100 nM | 1000 nM | > 50100 nM |
| COC(=O)C(c1ccccc1)C1CCN(C(=O)c2cccc(-c3nc4ccc(OC)cc4[nH]3)c2)CC1 (stereo not drawn) [Example 123] | 631 nM | 501 nM |  |  |  |  |  | 12600 nM | 5010 nM | 1580 nM | 50100 nM | 2510 nM | > 50100 nM |
| COC(=O)C(c1ccccc1)N1CCN(C(=O)c2cccc(-c3ccc(OC)cc3)c2)CC1 (stereo not drawn) [Example 128] | 251 nM | 158 nM |  | 5.7 |  |  | <4.3 | 3160 nM | 3160 nM |  | 10000 nM |  |  |
| COC(=O)C(c1ccccc1)C1CCN(C(=O)c2cccc(-c3ccc(OC)cc3)c2)CC1 (stereo not drawn) [Example 130] | 1000 nM | 631 nM |  |  |  |  |  | 10000 nM | 15800 nM | 2000 nM | 39800 nM | 12600 nM | 39800 nM |
